Patent US20020146823A1, “Method for promoting hematopoietic and mesenchymal cell proliferation and differentiation” (The University of Southern California, priority 1997, published 2002)

How the values were obtained:
[1] = tested on: enriched HPC from C57B1/6 mice; experiment: Murine HPC colony formation in semi-solid culture; format: cell-based
Protocol: HPC were harvested from C57B1/6 mice by immunomagnetic affinity chromatography and placed in semi-solid cultures with optimal growth medium. At various times after initiation of culture, the formation of colonies and the size of the colonies (number of cells/colony) were assessed microscopically.
Female C57B1/6 mice were purchased from Simonson and used as a source of bone marrow cells in this study. The bone marrow was harvested, either from untreated mice or from mice injected with 5-fluorouracil (5-FU) (3 mg/mouse; approximately 150 mg/kg) in the tail vein 48 hours before harvest, from the femur and tibia of mice by flushing with phosphate buffered saline (PBS), pH 7.4, containing 2% fetal bovine serum (FBS) with a 21-gauge needle. The eluant from the flushing was centrifuged and the pellet was resuspended at 4×10^7 nucleated cells/ml in PBS containing PBS containing 2% FBS and 5% normal rat serum.
The reagents for immunomagnetic labeling were purchased from Stem Cell Technologies, Inc. (Vancouver, BC). […]

rat bone marrow MSC = experiment: Alkaline phosphatase expression by MSC in osteogenic medium; format: cell-based, Sprague Dawley rats; conditions: osteogenic medium 4 days
Protocol: Bone marrow from female Sprague Dawley rats were harvested by flushing the femur with medium. The cells were placed in culture dishes […], allowed to adhere overnight, and then placed in DMEM-LG medium containing antibiotics and 10% fetal calf serum together with varying concentrations of AII. At various times after culture initiation, the cells were washed with Tyrode's buffer and placed in osteogenic medium (DMEM-LG containing 10% fetal calf serum, 100 nM dexamethasone and 0.05 mM ascorbic acid) for 4 days prior to assessment of the level of alkaline phosphatase activity per well. Briefly, the wells were washed with Tyrode's buffer and 1 ml alkaline phosphatase substrate solution (50 mM glycine, pH 10.5, containing 1 mM magnesium chloride and 2.5 mM p-nitrophenyl phosphate) to each well. Fifteen minutes after addition of this aqueous substrate, the buffer was removed from the culture and mixed with 1 ml of 1N sodium hydroxide to stop the reaction. The absorbance of the resultant mixture at […] was then determined via spectroscopy. The level of alkaline phosphatase activity is expressed as the level of absorbance per culture dish.

Asp-Arg-Val-Tyr-Ile-His-Pro-Phe (DRVYIHPF; printed: Asp-Arg-Val-Tyr-Ile-His-Pro-Phe) [AII, octapeptide present in humans and other species; known pressor agent, commercially available]
HPC colony size ([1]; 0 to 100 μg/ml, normal and 5-FU treated): increases proportionately with exposure to increased concentrations of AII
macroscopic colonies ([1]; day 14, enriched HPC from untreated (normal) mice, 100 μg/ml): 100
proliferation of cells that express alkaline phosphatase (rat bone marrow MSC): can accelerate the proliferation of cells that express alkaline phosphatase
